In patent US9145411B2, “Substituted amino-pyrimidine derivatives” (Asana Biosciences, LLC, priority 2012, dated 2015):

Experiments:
[1] = molecular target: T1, PI3Kα (wild-type) (Homo sapiens, UniProt P42336); assay: PI3 Kinase TR-FRET assay, PI3Kα (wild-type); format: biochemical; conditions: wild-type P110/P85α, 10 μM ATP
T1 construct: made in house; host or cells: SF9 insect cells
In short: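 Sf9-expressed, Ni-purified p110/p85α (5 ng) with PIP2 was preincubated with compound for 60 min at room temperature in buffer with 40 mM MgCl2 and 5 mM DTT. The reaction ran 30 min at room temperature with 10 μM PIP2 and 10 μM ATP. The TR-FRET 665/615 nm ratio was used to derive IC50 from dose-response curves.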

[2] = molecular target: T2, mTOR kinase (Homo sapiens, UniProt P42345); assay: mTOR kinase TR-FRET assay; format: biochemical; conditions: 20 μM ATP
T2 construct: purchased Millipore, USA
T2 sequence (P42345 1362-2549 limits assumed): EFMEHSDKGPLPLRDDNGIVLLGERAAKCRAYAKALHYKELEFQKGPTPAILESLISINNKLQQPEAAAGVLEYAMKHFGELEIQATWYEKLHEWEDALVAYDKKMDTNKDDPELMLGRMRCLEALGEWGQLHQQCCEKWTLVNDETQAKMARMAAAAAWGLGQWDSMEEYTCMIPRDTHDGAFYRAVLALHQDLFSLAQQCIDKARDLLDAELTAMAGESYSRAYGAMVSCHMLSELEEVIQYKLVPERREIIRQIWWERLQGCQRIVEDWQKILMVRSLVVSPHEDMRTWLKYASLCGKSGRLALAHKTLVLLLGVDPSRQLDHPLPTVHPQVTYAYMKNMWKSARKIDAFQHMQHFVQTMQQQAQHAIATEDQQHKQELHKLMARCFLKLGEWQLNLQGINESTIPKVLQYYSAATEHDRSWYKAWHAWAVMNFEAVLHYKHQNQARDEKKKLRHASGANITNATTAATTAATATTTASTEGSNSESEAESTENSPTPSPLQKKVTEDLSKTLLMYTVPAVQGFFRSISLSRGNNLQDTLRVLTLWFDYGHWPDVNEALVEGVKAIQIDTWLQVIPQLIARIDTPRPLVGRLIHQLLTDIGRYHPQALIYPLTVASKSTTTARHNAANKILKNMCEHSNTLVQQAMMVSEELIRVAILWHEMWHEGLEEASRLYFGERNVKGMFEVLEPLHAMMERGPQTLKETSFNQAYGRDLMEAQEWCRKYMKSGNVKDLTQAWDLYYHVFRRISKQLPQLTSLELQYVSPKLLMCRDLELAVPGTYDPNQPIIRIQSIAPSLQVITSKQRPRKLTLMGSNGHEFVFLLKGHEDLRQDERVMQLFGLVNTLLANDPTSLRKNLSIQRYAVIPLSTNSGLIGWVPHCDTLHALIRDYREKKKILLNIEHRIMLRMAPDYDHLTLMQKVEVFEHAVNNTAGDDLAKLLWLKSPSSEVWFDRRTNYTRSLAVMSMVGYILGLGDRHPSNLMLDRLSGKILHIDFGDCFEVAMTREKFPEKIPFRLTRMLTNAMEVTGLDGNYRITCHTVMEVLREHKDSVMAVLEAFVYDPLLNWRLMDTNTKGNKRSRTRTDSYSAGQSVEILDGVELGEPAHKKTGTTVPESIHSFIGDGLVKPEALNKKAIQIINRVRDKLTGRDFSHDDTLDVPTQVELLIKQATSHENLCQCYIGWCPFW
In short: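 Test compounds were pre-incubated 60 min with mTOR (5 ng), then ULight-p70 S6K (Thr389) peptide (50 nM) and ATP (20 μM) were added in HEPES 50 mM pH 7.5, EGTA, MnCl2 3 mM. After 60 min at room temperature, EDTA stop and Eu-anti-phospho antibody TR-FRET (665/615 nm) gave IC50 from sigmoidal variable-slope fits.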

[3] = system: pAkt(T308); assay: In-cell Western assay, pAkt(T308), PC3 cells; format: cell-based; conditions: Homo sapiens, PC-3, 2 hours incubation
Protocol: Cells from human prostate cancer cell line PC3 (American Type Culture Collection (ATCC), Manassas, Va. 20108 USA) were seeded at an optimal density of 22,000 cell/well in 96-well plates containing Ham's F12K medium (90 μL) and incubated overnight. The compound dilutions were carried out in 100% DMSO followed by a dilution in the medium. Test compounds were added in serial dilutions to the wells and incubated for 2 hours. The cells were washed and fixed with 4% paraformaldehyde. After incubation at room temperature for 1 hour in the dark, blocking was done for 2 hours at room temperature. Primary antibodies for pAkt(S473) ([…] phosphorylated at serine 473), pAkt(T308) (Akt phosphorylated at threonine 308) and for pS6RP (S235/236) (phosphorylated at serine 235/236) (commercially available from Cell Signaling Technology®, whose protocol was followed for the in-cell western assay, were diluted to the required concentration and added to the corresponding wells followed by overnight incubation at 4° C. Eu-labeled rabbit (PE) (Perkin-Elmer USA catalog #AD0106) secondary antibody was added and incubated for 2 hours at room temperature. Delfia® enhancement solution (cat #1244-105, Perkin Elmer USA) was subsequently added to the plate before taking the reading at 615 nm with excitation wavelength of 340 nm, after which 0.5 μg/mL of Hoechst® 33258 dye (Catalog #86140-5, Sigma) was added to the plate and fluorescence emission was read at 460 nm with 355 nm excitation, to evaluate the correction factor. IC50 values were calculated using a sigmoidal dose-response curve fit in GraphPad Prism® v5 software.

[4] = system: PC3 cells; assay: XTT assay for cell viability, PC3 cells; format: cell-based; conditions: Homo sapiens, PC-3; PC3 cell proliferation, 96 hours
In short: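 Log-phase PC3 cells (1000/well) were seeded for 24 h, then exposed to serially diluted compounds (DMSO dilutions) for 96 h. Viability was measured by XTT dye conversion at 37 °C, with absorbance read at 465 nm. EC50 was obtained from a sigmoidal dose-response fit.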

T1 sequence (P42336 whole entry, species assumed): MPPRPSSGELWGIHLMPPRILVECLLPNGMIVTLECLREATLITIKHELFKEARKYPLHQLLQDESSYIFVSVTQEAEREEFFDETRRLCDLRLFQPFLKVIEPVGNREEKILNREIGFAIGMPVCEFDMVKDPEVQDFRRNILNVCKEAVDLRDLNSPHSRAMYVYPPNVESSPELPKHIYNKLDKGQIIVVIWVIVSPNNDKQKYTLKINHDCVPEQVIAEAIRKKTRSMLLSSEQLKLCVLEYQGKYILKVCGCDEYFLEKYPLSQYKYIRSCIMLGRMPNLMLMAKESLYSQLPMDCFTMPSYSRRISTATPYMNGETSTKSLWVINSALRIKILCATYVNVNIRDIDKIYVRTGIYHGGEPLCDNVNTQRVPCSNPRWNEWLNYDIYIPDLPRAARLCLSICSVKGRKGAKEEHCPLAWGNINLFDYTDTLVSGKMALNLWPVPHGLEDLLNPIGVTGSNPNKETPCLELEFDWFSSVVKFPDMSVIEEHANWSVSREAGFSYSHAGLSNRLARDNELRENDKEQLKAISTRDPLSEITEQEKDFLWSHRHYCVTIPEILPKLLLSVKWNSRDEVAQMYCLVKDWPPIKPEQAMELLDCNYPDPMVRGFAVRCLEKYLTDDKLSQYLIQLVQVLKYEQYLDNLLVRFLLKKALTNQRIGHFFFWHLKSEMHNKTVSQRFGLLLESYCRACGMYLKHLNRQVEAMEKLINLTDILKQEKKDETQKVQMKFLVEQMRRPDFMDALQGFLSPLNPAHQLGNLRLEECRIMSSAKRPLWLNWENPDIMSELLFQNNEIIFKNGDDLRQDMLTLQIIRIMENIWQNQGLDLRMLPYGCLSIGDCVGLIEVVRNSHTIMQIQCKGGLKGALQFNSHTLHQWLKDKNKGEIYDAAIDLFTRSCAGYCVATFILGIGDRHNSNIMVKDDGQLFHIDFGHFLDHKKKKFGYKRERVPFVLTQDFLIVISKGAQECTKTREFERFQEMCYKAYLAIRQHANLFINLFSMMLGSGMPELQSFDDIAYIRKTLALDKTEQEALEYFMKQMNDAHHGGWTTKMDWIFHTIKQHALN
T1 sequence (P27986 whole entry partner, species assumed): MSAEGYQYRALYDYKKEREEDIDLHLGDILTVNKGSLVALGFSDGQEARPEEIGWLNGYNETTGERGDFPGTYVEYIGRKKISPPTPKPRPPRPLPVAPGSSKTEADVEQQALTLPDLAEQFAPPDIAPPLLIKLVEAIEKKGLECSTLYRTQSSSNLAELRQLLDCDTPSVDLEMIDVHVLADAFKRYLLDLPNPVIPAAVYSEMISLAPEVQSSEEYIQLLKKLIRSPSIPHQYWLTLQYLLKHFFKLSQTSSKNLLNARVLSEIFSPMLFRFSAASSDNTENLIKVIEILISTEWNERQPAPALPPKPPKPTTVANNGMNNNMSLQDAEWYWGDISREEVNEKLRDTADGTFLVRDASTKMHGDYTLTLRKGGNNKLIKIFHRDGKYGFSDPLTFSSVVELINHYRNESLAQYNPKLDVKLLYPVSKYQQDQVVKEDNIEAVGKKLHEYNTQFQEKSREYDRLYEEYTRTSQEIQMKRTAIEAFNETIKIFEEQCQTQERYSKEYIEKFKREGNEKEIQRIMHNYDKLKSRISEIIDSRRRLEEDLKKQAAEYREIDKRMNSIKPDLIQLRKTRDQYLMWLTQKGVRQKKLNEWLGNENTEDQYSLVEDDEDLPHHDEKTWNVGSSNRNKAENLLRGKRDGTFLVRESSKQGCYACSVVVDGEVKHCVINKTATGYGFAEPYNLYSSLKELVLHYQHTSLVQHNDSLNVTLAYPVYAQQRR

| Structure (SMILES) | IC50 [1] | IC50 [2] | IC50 [3] | IC50 [4] |
| --- | --- | --- | --- | --- |
| Nc1ncc(-c2nc(N3CCOCC3)c3ncc(-c4cccc(NS(=O)(=O)c5ccc(F)cc5)c4)cc3n2)cn1 [Example 8, N-(3-(2-(2-aminopyrimidin-5-yl)-4-morpholinopyrido[3,2-d]pyrimidin-7-yl)phenyl)-4-fluorobenzenesulfonamide] | < 50 nM | < 50 nM | 100 to 500 nM | 501 to 5000 nM |
| Nc1ncc(-c2nc(N3CCOCC3)c3ncc(-c4cccc(NC(=O)CN5CCC(O)CC5)c4)cc3n2)cn1 [Example 9, N-(3-(2-(2-Aminopyrimidin-5-yl)-4-morpholinopyrido[3,2-d]pyrimidin-7-yl)-phenyl)-2-(4-hydroxypiperidin-1-yl)acetamide] | < 50 nM | < 50 nM | < 100 nM | 100 to 500 nM |
| CNC(=O)c1ccc(-c2cnc3c(N4CCOCC4)nc(-c4cnc(N)nc4)nc3c2)cc1 [Example 33, 4-(2-(2-aminopyrimidin-5-yl)-4-morpholinopyrido[3,2-d]pyrimidin-7-yl)-N-methylbenzamide] | < 50 nM | < 50 nM | 100 to 500 nM | 100 to 500 nM |
| Nc1ncc(-c2nc(N3CCOCC3)c3ncc(-c4cccc(NC(=O)CO)c4)cc3n2)cn1 [Example 50, N-(3-(2-(2-amino-pyrimidin-5-yl)-4-morpholinopyrido[3,2-d]pyrimidin-7-yl)phenyl)-2-hydroxyacetamide] | < 50 nM | < 50 nM | 501 to 5000 nM | 100 to 500 nM |
| N#CCC(=O)Nc1cccc(-c2cnc3c(N4CCOCC4)nc(-c4cnc(N)nc4)nc3c2)c1 [Example 53, N-(3-(2-(2-amino-pyrimidin-5-yl)-4-morpholinopyrido[3,2-d]pyrimidin-7-yl)phenyl)-2-cyanoacetamide] | < 50 nM | < 50 nM | 100 to 500 nM | 100 to 500 nM |
| CC(=O)Nc1ccc(-c2cnc3c(N4CCOCC4)nc(-c4cnc(N)nc4)nc3c2)cc1 [Example 54, N-(4-(2-(2-amino-pyrimidin-5-yl)-4-morpholinopyrido[3,2-d]pyrimidin-7-yl)-phenyl)acetamide] | < 50 nM | < 50 nM | < 100 nM | 100 to 500 nM |
| CC(=O)Nc1cccc(-c2cnc3c(N4CCOCC4)nc(-c4cnc(N)nc4)nc3c2)c1C [Example 56, N-(3-(2-(2-amino-pyrimidin-5-yl)-4-morpholinopyrido[3,2-d]pyrimidin-7-yl)-2-methylphenyl)acetamide] | < 50 nM | 50 to 200 nM | 100 to 500 nM | 100 to 500 nM |
| Nc1ncc(-c2nc(N3CCOCC3)c3ncc(-c4cccc(NC(=O)C5CCCC5)c4)cc3n2)cn1 [Example 57, N-(3-(2-(2-amino-pyrimidin-5-yl)-4-morpholinopyrido[3,2-d]pyrimidin-7-yl)-phenyl)cyclopentane-carboxamide] | < 50 nM | < 50 nM | 100 to 500 nM | 501 to 5000 nM |
| Nc1ncc(-c2nc(N3CCOCC3)c3ncc(-c4cccc(NC(=O)c5cnccn5)c4)cc3n2)cn1 [Example 64, N-(3-(2-(2-amino-pyrimidin-5-yl)-4-morpholinopyrido[3,2-d]pyrimidin-7-yl)-phenyl)pyrazine-2-carboxamide] | < 50 nM |  | 100 to 500 nM |  |
| Nc1ncc(-c2nc(N3CCOCC3)c3ncc(-c4cccc(NC(=O)c5cnccc5C(F)(F)F)c4)cc3n2)cn1 [Example 68, N-(3-(2-(2-amino-pyrimidin-5-yl)-4-morpholinopyrido[3,2-d]pyrimidin-7-yl)phenyl)-4-(trifluoromethyl)-nicotinamide] | < 50 nM | < 50 nM | < 100 nM | 100 to 500 nM |
| Nc1ncc(-c2nc(N3CCOCC3)c3ncc(-c4cccc(NC(=O)C5CCC(O)CC5)c4)cc3n2)cn1 (stereo not drawn) [Example 70, N-(3-(2-(2-amino-pyrimidin-5-yl)-4-morpholinopyrido[3,2-d]pyrimidin-7-yl)phenyl)-4-hydroxycyclohexane-carboxamide] | < 50 nM | < 50 nM | 100 to 500 nM | 100 to 500 nM |
| CC(=O)Nc1ccc(F)c(-c2cnc3c(N4CCOCC4)nc(-c4cnc(N)nc4)nc3c2)c1F [Example 123, N-(3-(2-(2-amino-pyrimidin-5-yl)-4-morpholinopyrido[3,2-d]pyrimidin-7-yl)-2,4-difluorophenyl)acetamide] | < 50 nM | 50 to 200 nM |  | 100 to 500 nM |
| N#CC1(C(=O)Nc2cccc(-c3cnc4c(N5CCOCC5)nc(-c5cnc(N)nc5)nc4c3)c2F)CC1 [Example 125, N-(3-(2-(2-amino-pyrimidin-5-yl)-4-morpholinopyrido[3,2-d]pyrimidin-7-yl)-2-fluorophenyl)-1-cyanocyclopropane-carboxamide] | < 50 nM | < 50 nM |  | 100 to 500 nM |

The next lines start with the values.

| IC50 [1] | IC50 [2] | IC50 [3] | IC50 [4] | Structure (SMILES) |
| --- | --- | --- | --- | --- |
| < 50 nM | 50 to 200 nM | 100 to 500 nM |  | CN1CCN(C(=O)c2ccc(-c3cnc4c(N5CCOCC5)nc(-c5cnc(N)nc5)nc4c3)o2)CC1 [Example 5, (5-(2-(2-Aminopyrimidin-5-yl)-4-morpholinopyrido[3,2-d]pyrimidin-7-yl)furan-2-yl)(4-methylpiperazin-1-yl)methanone] |
| < 50 nM | < 50 nM | 100 to 500 nM | 100 to 500 nM | CNC(=O)Nc1ccc(-c2cnc3c(N4CCOCC4)nc(-c4cnc(N)nc4)nc3c2)cc1 [Example 29, 1-(4-(2-(2-amino-pyrimidin-5-yl)-4-morpholinopyrido[3,2-d]pyrimidin-7-yl)phenyl)-3-methylurea] |
| < 50 nM | < 50 nM | 100 to 500 nM | < 100 nM | Nc1ncc(-c2nc(N3CCOCC3)c3ncc(-c4cncc(NC(=O)C5CC5)c4)cc3n2)cn1 [Example 31, N-(5-(2-(2-amino-pyrimidin-5-yl)-4-morpholinopyrido[3,2-d]pyrimidin-7-yl)pyridin-3-yl)cyclopropane-carboxamide] |
| < 50 nM | < 50 nM | < 100 nM | 100 to 500 nM | Nc1ncc(-c2nc(N3CCOCC3)c3ncc(-c4cccc(NC(=O)c5cccnc5)c4)cc3n2)cn1 [Example 58, N-(3-(2-(2-amino-pyrimidin-5-yl)-4-morpholinopyrido[3,2-d]pyrimidin-7-yl)-phenyl)nicotinamide] |
| < 50 nM | < 50 nM | 501 to 5000 nM | 100 to 500 nM | CC(C)CCC(=O)Nc1cccc(-c2cnc3c(N4CCOCC4)nc(-c4cnc(N)nc4)nc3c2)c1 [Example 66, N-(3-(2-(2-amino-pyrimidin-5-yl)-4-morpholinopyrido[3,2-d]pyrimidin-7-yl)phenyl)-4-methylpentanamide] |
| < 50 nM | < 50 nM | 100 to 500 nM | 100 to 500 nM | Nc1ncc(-c2nc(N3CCOCC3)c3ncc(-c4cccc(NC(=O)c5ccco5)c4)cc3n2)cn1 [Example 67, N-(3-(2-(2-amino-pyrimidin-5-yl)-4-morpholinopyrido[3,2-d]pyrimidin-7-yl)-phenyl)furan-2-carboxamide] |
| < 50 nM | < 50 nM | < 100 nM | 100 to 500 nM | Nc1ncc(-c2nc(N3CCOCC3)c3ncc(-c4cccc(NC(=O)C5CCC5)c4)cc3n2)cn1 [Example 76, N-(3-(2-(2-amino-pyrimidin-5-yl)-4-morpholinopyrido[3,2-d]pyrimidin-7-yl)-phenyl)cyclobutane-carboxamide] |
| < 50 nM | 50 to 200 nM | 501 to 5000 nM |  | CN1CCN(CC(=O)Nc2cccc(-c3cnc4c(N5CCOCC5)nc(-c5cnc(N)nc5)nc4c3)c2F)CC1 [Example 86, N-(3-(2-(2-amino-pyrimidin-5-yl)-4-morpholinopyrido[3,2-d]-pyrimidin-7-yl)-2-fluoro-phenyl)-2-(4-methyl-piperazin-1-yl)acetamide] |
| < 50 nM | 50 to 200 nM |  | > 1000 nM | N#CC1(C(=O)Nc2ccc(F)c(-c3cnc4c(N5CCOCC5)nc(-c5cnc(N)nc5)nc4c3)c2)CC1 [Example 124, N-(3-(2-(2-amino-pyrimidin-5-yl)-4-morpholinopyrido[3,2-d]pyrimidin-7-yl)-4-fluorophenyl)-1-cyanocyclopropane-carboxamide] |
